Test results published in ChEMBL document CHEMBL6177991, “Discovery of P11-2: A Potent First-in-Class MNK1-Targeting PROTAC Degrader for the Treatment of Cancer” (J Med Chem, 2025).
pIC50: −log10 of the molar value. The source made the active and inactive calls. The rule behind the calls is not given here.

Tests used:
[1] = test system: Mus musculus; test: In vivo PROTAC activity at CRBN/MNK1 in human MV4-11 cells xenografted in nude female NSG mouse assessed as induction of MNK1 degradation at 20 mg/kg, ip qd administrated for 16 days by Western blot analysis; format: functional, organism-based; conditions: time 16.0 day
[2] = test system: MOLM-13; test: Anti-proliferative activity against human MOLM-13 cells measured after 72 hrs by CCK8 assay; conditions: MOLM-13, 72 h
[3] = test system: MM1.S; test: Anti-proliferative activity against human MM1.S cells measured after 120 hrs by CCK8 assay
[4] = test system: MV4-11; test: Effect on MNK2 expression level in human MV4-11 cells at 300 nM incubated for 24 hrs by DIA-based quantitative proteomics analysis; format: functional, cell-based
[5] = test system: MV4-11; test: Downregulation of SUFU expression level in human MV4-11 cells at 300 nM incubated for 24 hrs by DIA-based quantitative proteomics analysis; format: functional, cell-based
[6] = test system: MV4-11; test: Downregulation of C9orf40 expression level in human MV4-11 cells at 300 nM incubated for 24 hrs by DIA-based quantitative proteomics analysis; format: functional, cell-based
[7] = test system: MV4-11; test: Effect on GSPT1 expression in human MV4-11 cells at 10 to 1000 nM incubated for 24 hrs by immunoblot analysis; format: functional, cell-based; conditions: dose 10-1000 nM
[8] = test system: MV4-11; test: Effect on IKZF3 expression in human MV4-11 cells at 10 to 1000 nM incubated for 24 hrs by immunoblot analysis; format: functional, cell-based; conditions: dose 10-1000 nM
[9] = test system: MV4-11; test: Upregulation of protein translation pathway related protein expression in human MV4-11 cells by GO analysis; format: functional, cell-based
[10] = test system: MV4-11; test: Upregulation of PI3K-Akt pathway related protein expression in human MV4-11 cells by GO analysis; format: functional, cell-based
[11] = test system: MV4-11; test: Upregulation of mTOR pathway related protein expression in human MV4-11 cells by GO analysis; format: functional, cell-based
[12] = test system: MV4-11; test: Upregulation of ubiquitin-mediated proteolysis pathway related protein expression in human MV4-11 cells by GO analysis; format: functional, cell-based
[13] = test system: MV4-11; test: Upregulation of RNA transport pathways related protein expression in human MV4-11 cells by GO analysis; format: functional, cell-based
[14] = test system: MV4-11; test: Upregulation of mTOR pathway related protein expression in human MV4-11 cells by KEGG analysis; format: functional, cell-based
[15] = test system: MV4-11; test: Upregulation of cell cycle signaling pathways related protein expression in human MV4-11 cells by KEGG analysis; format: functional, cell-based
[16] = test system: MV4-11; test: Induction of apoptosis in human MV4-11 cells assessed as viable cells at 30 nM incubated for 24 hrs by Annexin V-FITC/PI dual staining based flow cytometric analysis (reference value: 94.9 %); format: functional; conditions: read-out: Activity
[17] = test system: MV4-11; test: Induction of apoptosis in human MV4-11 cells assessed as early apoptotic cells at 30 nM incubated for 24 hrs by Annexin V-FITC/PI dual staining based flow cytometric analysis (reference value: 3.42 %); format: functional
[18] = test system: MV4-11; test: Induction of apoptosis in human MV4-11 cells assessed as late apoptotic cells at 30 nM incubated for 24 hrs by Annexin V-FITC/PI dual staining based flow cytometric analysis (reference value: 1.48 %); format: functional
[19] = test system: MV4-11; test: Induction of apoptosis in human MV4-11 cells assessed as necrotic cells at 100 nM incubated for 24 hrs by Annexin V-FITC/PI dual staining based flow cytometric analysis (reference value: 0.16 %); format: functional
[20] = test system: MV4-11; test: Induction of apoptosis in human MV4-11 cells assessed as necrotic cells at 300 nM incubated for 24 hrs by Annexin V-FITC/PI dual staining based flow cytometric analysis (reference value: 0.16 %); format: functional
[21] = test system: MV4-11; test: Induction of cell cycle arrest in human MV4-11 cells assessed as decrease in accumulation of cells at S phase incubated for 24 hrs by PI staining based flow cytometric analysis; format: functional; conditions: dose 30-300 µM
[22] = Cmax in male Sprague-Dawley rat at 20 mg/kg, po measured up to 24 hrs by LC-MS analysis; format: ADME, organism-based; conditions: in vivo
[23] = AUC (0 to t) in male Sprague-Dawley rat at 20 mg/kg, po measured up to 24 hrs by LC-MS analysis; format: ADME, organism-based; conditions: in vivo
[24] = AUC (0 to t) in male Sprague-Dawley rat at 5 mg/kg, ip measured up to 24 hrs by LC-MS analysis; format: ADME, organism-based; conditions: in vivo
[25] = Tmax in male Sprague-Dawley rat at 20 mg/kg, po measured up to 24 hrs by LC-MS analysis; format: ADME, organism-based; conditions: in vivo
[26] = Half life in male Sprague-Dawley rat at 20 mg/kg, po measured up to 24 hrs by LC-MS analysis; format: ADME, organism-based; conditions: in vivo
[27] = Half life in male Sprague-Dawley rat at 5 mg/kg, ip measured up to 24 hrs by LC-MS analysis; format: ADME, organism-based; conditions: in vivo
[28] = Clearance in male Sprague-Dawley rat at 1 mg/kg, iv measured up to 24 hrs by LC-MS analysis; format: ADME, organism-based; conditions: in vivo
[29] = Oral bioavailability in male Sprague-Dawley rat at 20 mg/kg measured up to 24 hrs by LC-MS analysis; format: ADME, organism-based; conditions: in vivo
[30] = test system: MV4-11; test: Antitumor activity against human MV4-11 cells xenografted in nude female NSG mouse assessed as tumor growth inhibition at 20 mg/kg, ip qd administrated for 16 days by caliper method relative to control; format: functional; conditions: MV4-11, 384 h, time 16 day, read-out: TGI
[31] = test system: Mus musculus; test: In vivo induction of MNK2 degradation in human MV4-11 cells xenografted in nude female NSG mouse at 20 mg/kg, ip qd administrated for 16 days; format: functional, organism-based; conditions: time 16.0 day
[32] = Toxicity in male ICR mouse assessed as histopathological change in heart at 100 mg/kg, ip measured after 14 days by hematoxylin and eosin staining based analysis; format: organism-based; conditions: in vivo, 336 h, time 14 day
[33] = Toxicity in male ICR mouse assessed as histopathological change in spleen at 100 mg/kg, ip measured after 14 days by hematoxylin and eosin staining based analysis; format: organism-based; conditions: in vivo, 336 h, time 14 day
[34] = Toxicity in male ICR mouse assessed as change in serum TBIL level at 100 mg/kg, ip measured after 14 days; format: organism-based; conditions: in vivo, 336 h, time 14 day
[35] = Toxicity in male ICR mouse assessed as change in serum ALT level at 100 mg/kg, ip measured after 14 days; format: organism-based; conditions: in vivo, 336 h, time 14 day
[36] = Toxicity in male ICR mouse assessed as change in serum DBIL level at 100 mg/kg, ip measured after 14 days; format: organism-based; conditions: in vivo, 336 h, time 14 day
[37] = Toxicity in male ICR mouse assessed as change in serum CK-MB level at 100 mg/kg, ip measured after 14 days; format: organism-based; conditions: in vivo, 336 h, time 14 day
[38] = Toxicity in male ICR mouse assessed as change in serum AST level at 100 mg/kg, ip measured after 14 days; format: organism-based; conditions: in vivo, 336 h, time 14 day
[39] = Toxicity in nude female NSG mouse xenografted with human MV4-11 cells assessed as change in serum AST level at 20 mg/kg, ip qd administrated for 16 days; format: organism-based; conditions: in vivo, 384 h, time 16 day
[40] = Toxicity in nude female NSG mouse xenografted with human MV4-11 cells assessed as change in serum uric acid level at 20 mg/kg, ip qd administrated for 16 days; format: organism-based; conditions: in vivo, 384 h, time 16 day
[41] = Toxicity in nude female NSG mouse xenografted with human MV4-11 cells assessed as change in serum BUN level at 20 mg/kg, ip qd administrated for 16 days; format: organism-based; conditions: in vivo, 384 h, time 16 day

pIC50 [2]: 6.21
pIC50 [3]: 6.62
Cmax [22]: 160 ng/mL
AUC(0-t) at 24 h [23]: 2950 ng·h/mL
AUC(0-t) at 24 h [24]: 9630 ng·h/mL
Tmax [25]: 1.4 h
half-life [26]: 7.1 h
half-life [27]: 5.2 h
clearance [28]: 2.38 mL/min/kg
bioavailability [29]: 2.1%
Structure (SMILES): O=C1CCC(N2Cc3c(NC(=O)CCCCCC(=O)N4CCC(C(=O)Nc5ncc(-c6ccccc6)s5)CC4)cccc3C2=O)C(=O)N1 (stereo unspecified)
Activity [1]: Active
Activity [4]: No effect
Activity [5]: Active
Activity [6]: Active
Activity [7]: No effect
Activity [8]: No effect
Activity [9]: Active
Activity [10]: Active
Activity [11]: Active
Activity [12]: Active
Activity [13]: Active
Activity [14]: Active
Activity [15]: Active
viability at 0.03 µM [16]: 85.8%
Activity [17]: 6.46%
Activity [18]: 7.49%
Activity [19]: 0.69%
Activity [20]: 1.36%
Activity [21]: Dose-dependent-effect
inhibition in vivo at 20 mg/kg [30]: > 90%
Activity [31]: inactive
Activity [32]: Non-toxic
Activity [33]: Non-toxic
Activity [34]: Non-toxic
Activity [35]: Non-toxic
Activity [36]: Non-toxic
Activity [37]: Non-toxic
Activity [38]: Non-toxic
Activity [39]: Non-toxic
Activity [40]: Non-toxic
Activity [41]: Non-toxic
